The results in this text go back to US5254577A, “Aminomethyloxooxazolidinyl arylbenzene derivatives useful as antibacterial agents” (The Du Pont Merck Pharmaceutical Company, priority 1992, dated 1993).

Converted amounts (≈) assume the structure as drawn. Read-outs that look alike come from different tables or passages of the source.

The test system of assay [1] is Staphylococcus aureus. The assay is described as follows: In vivo activity against Staphylococcus aureus in an acute lethal mouse model. The following applies: mice infected intraperitoneally, dosed 1 h and 4 h post-infection, survivors on seventh day. The procedure: The in vivo potency of these compounds is exemplified by the data summarized in Table X. Determinations of in vivo efficacy are performed by inoculating mice intraperitoneally with cultures of the infecting organism diluted to produce 100% mortality in control animals within twenty-four hours. The culture of S. aureus used to infect the animals was diluted to the required bacterial density using 5% aqueous hog gastric mucin. The compounds are dissolved or suspended in 0.25% aqueous Methocel® (Methocel®: Hydroxypropyl Methylcullulose, E15 Premium, Dow Chemical Company) for oral administration or sterile distilled water containing 5% dimethylsulfoxide (Fisher Scientific Company, Fairlawn, N.J.) for subcutaneous administration. The mice are dosed at one hour and at four hours post-infection. Mortality is recorded daily until test determination seven days post infection. The number of survivors in each treatment group on the seventh day after infection is used in the calculation of the ED50, the dose of compound that protects 50% of the mice (Litchfield,J. T. and Wildoxon. A simulated method for evaluating dose-effect experiments. J. Pharmacol Exp. Ther., 98:99-113, 1949).

In a further assay the test system is Escherichia coli. The assay is described as follows: In vitro broth microdilution, 24-hour minimal inhibitory concentration (MIC). The following applies: Mueller-Hinton broth; for MIC: read-out: Minimum Inhibitory Concentration. The assay is classed as cell-based. From the text:
(§1) A standard microdilution method (National Committee for Clinical Standards. Tentative standard M7-T. Standard methods for dilution antimicrobial susceptibility tests for bacteria that grow aerobically. National Committee for Clinical Laboratory Standards, Villanova, Pa. 1982) with Mueller-Hinton broth is used to determine the 24-hour minimal inhibitory concentrations (MIC's) for test strains of Staphylococcus aureus and Escherichia coli.
For orientation: Dilution methods test growth across graded concentrations, often in twofold steps.

The test system of assay [2] is Staphylococcus aureus. The description is as above. The following applies: Mueller-Hinton broth; for MIC: read-out: Minimum Inhibitory Concentration. Format: cell-based.
Source text: as §1

Setting [3] is: Staphylococcus aureus, 168 h, Oral Administration, read-out: ED50.
Where [4] appears, read: Staphylococcus aureus, sc, 168 h, Subcutaneous Administration, read-out: ED50.

Consider `CC(=O)NC[C@H]1CN(c2ccc(-c3ccncc3)cc2)C(=O)O1` [Example 85, (l)-N-[3-(4-(4-Pyridyl)phenyl)-2-oxooxazolidin-5-ylmethyl]acetamide], for which the ED50 (as a rule, the midpoint of the dose-response relation) turned out to be 1.3 mg/kg in the assay with Staphylococcus aureus [1] (setting [3]) and 0.5 mg/kg in the assay with Staphylococcus aureus [1] (setting [4]). In addition, the MIC in the assay on Escherichia coli is above 128 µg/mL; in the assay on Staphylococcus aureus [2], below 0.13 µg/mL.

For `CC(=O)NC[C@H]1CN(c2ccc(-c3csc(C)n3)cc2)C(=O)O1` [Example 132], the ED50 in the assay on Staphylococcus aureus [1] (setting [4]) is 17 mg/kg. The values for the MIC in the assay on Escherichia coli and in the assay on Staphylococcus aureus [2] were above 128 µg/mL and 4 µg/mL (≈ 12.1 µM), respectively.

`CC(=O)NC[C@H]1CN(c2ccc(-c3ccc(C(=O)CCl)cc3)cc2)C(=O)O1` [Example 8]: the ED50 with Staphylococcus aureus [1] (setting [3]) and in the assay with Staphylococcus aureus [1] (setting [4]) was above 90 mg/kg each time. Besides, the values for the MIC with Escherichia coli and with Staphylococcus aureus [2] were above 128 µg/mL and below 0.13 µg/mL, respectively.

On to `CC(=O)NC[C@H]1CN(c2ccc(-c3ccc(CO)cc3)cc2)C(=O)O1` [Example 28], for which the ED50 in the assay with Staphylococcus aureus [1] (setting [3]) was 52.6 mg/kg; with Staphylococcus aureus [1] (setting [4]), 30 mg/kg. Moreover, the MIC in the assay on Escherichia coli was above 128 µg/mL; in the assay on Staphylococcus aureus [2] it was below 0.13 µg/mL.

With `CC(=O)NC[C@H]1CN(c2ccc(-c3ccc(C(=O)CCN(C)C)cc3)cc2)C(=O)O1` [Example 57, (l)-N-[3-(4-(4'-(3-N,N-dimethylaminopropionyl)phenyl)phenyl)-2-oxooxazolidin-5-ylmethyl]acetamide], the ED50 in the assay with Staphylococcus aureus [1] (setting [3]) is 18 mg/kg; in the assay on Staphylococcus aureus [1] (setting [4]), 10 mg/kg. Also, the MIC was above 128 µg/mL in the assay on Escherichia coli and 1 µg/mL (≈ 2.44 µM) in the assay with Staphylococcus aureus [2].

With `CC(=O)NC[C@H]1CN(c2ccc(-c3csc(N)n3)cc2)C(=O)O1` [Example 134], the ED50 stood at 56.5 mg/kg with Staphylococcus aureus [1] (setting [3]) and 47 mg/kg in the assay with Staphylococcus aureus [1] (setting [4]). Besides, the MIC in the assay on Escherichia coli is above 128 µg/mL; with Staphylococcus aureus [2], 8 µg/mL (≈ 24.1 µM).

In the case of `CC(=O)NC[C@H]1CN(c2ccc(-c3ccc(C(=O)C(C)CN4CCN(C)CC4)cc3)cc2)C(=O)O1` (stereo partly shown) [Example 62], the values for the ED50 with Staphylococcus aureus [1] (setting [3]) and in the assay with Staphylococcus aureus [1] (setting [4]) were 51.9 mg/kg and 10 mg/kg, respectively. In addition, the MIC was above 128 µg/mL in the assay on Escherichia coli and 2 µg/mL (≈ 4.18 µM) with Staphylococcus aureus [2].

Consider `CC(=O)NC[C@H]1CN(c2ccc(-c3ccc(C(C)=NN4CCN(C)CC4)cc3)cc2)C(=O)O1` [Example 25, (l)-N-[3-(4-(4'-Acetylphenyl)phenyl)-2-oxooxazolidin-5-ylmethyl]acetamide 4-Methylpiperazinylhydrazone], for which the ED50 in the assay on Staphylococcus aureus [1] (setting [3]) turned out to be 13.9 mg/kg; in the assay with Staphylococcus aureus [1] (setting [4]), 5.8 mg/kg. Moreover, the MIC with Escherichia coli is above 128 µg/mL; in the assay on Staphylococcus aureus [2], 2 µg/mL (≈ 4.45 µM).

`CC(=O)NCC1CN(c2ccc(-c3ccc(S(C)(=O)=O)cc3)cc2)C(=O)O1` (stereo not shown) [Example 69, (l)-N-[3-(4-(4'-Methylsulfonylphenyl)phenyl)-2-oxooxazolidin-5-ylmethyl]acetamide]: the ED50 in the assay with Staphylococcus aureus [1] (Oral Administration, 10080 min) came to 4 mg/kg; with Staphylococcus aureus [1] (Subcutaneous Administration, 10080 min), 1.2 mg/kg. Besides, the “Minimum Inhibitory Concentration” value in the assay with Escherichia coli was above 128 µg/mL; in the assay on Staphylococcus aureus [2], 0.25 µg/mL.

As to `CC(=O)NC[C@H]1CN(c2ccc(-c3cccc(N)c3)cc2)C(=O)O1` [Example 73], the ED50 in the assay on Staphylococcus aureus [1] (setting [3]) amounted to 11.8 mg/kg; in the assay with Staphylococcus aureus [1] (setting [4]), 5 mg/kg. The figures for the MIC in the assay with Escherichia coli and in the assay with Staphylococcus aureus [2] were above 128 µg/mL and 0.5 µg/mL (≈ 1.54 µM), respectively.

Regarding `CC(=O)NC[C@H]1CN(c2ccc(-c3cccc([S+](C)[O-])c3)cc2)C(=O)O1` (single isomer, unassigned) [Example 65], the ED50 with Staphylococcus aureus [1] (setting [4]) amounted to 4.3 mg/kg. The MIC in the assay on Escherichia coli was above 128 µg/mL; with Staphylococcus aureus [2], 2 µg/mL (≈ 5.37 µM).

For the molecule `CCC(=O)c1ccc(-c2ccc(N3C[C@H](CNC(C)=O)OC3=O)cc2)cc1` [Example 7], in the assay on Staphylococcus aureus [1] (setting [4]), the 50% effective dose (ED50) was determined as 90 mg/kg. In addition, the MIC in the assay with Escherichia coli is above 128 µg/mL; in the assay on Staphylococcus aureus [2], 2 µg/mL (≈ 5.46 µM).

Consider `CC(=O)NC[C@H]1CN(c2ccc(-c3ccccc3C)cc2)C(=O)O1` [Example 71], for which the ED50 in the assay with Staphylococcus aureus [1] (setting [3]) is 51.9 mg/kg; with Staphylococcus aureus [1] (setting [4]), above 90 mg/kg. The MIC is above 128 µg/mL with Escherichia coli and 2 µg/mL (≈ 6.17 µM) in the assay on Staphylococcus aureus [2].

Consider `CCCN(CCC)Cc1ccc(-c2ccc(N3C[C@H](CNC(C)=O)OC3=O)cc2)cc1` [Example 44, (l)-N-[3-(4-(4'-di-n-propylaminomethylphenyl)phenyl)-2-oxooxazolidin-5-ylmethyl]acetamide], for which the ED50 came out at 8.6 mg/kg with Staphylococcus aureus [1] (setting [3]) and 3.7 mg/kg in the assay with Staphylococcus aureus [1] (setting [4]). Besides, the values for the MIC with Escherichia coli and in the assay with Staphylococcus aureus [2] were above 128 µg/mL and 4 µg/mL (≈ 9.44 µM), respectively.

Take `CC(=O)NC[C@H]1CN(c2ccc(-c3ccc(I)cc3)cc2)C(=O)O1` [Example 20, (l)-N-[3-(4-(4'-Iodophenyl)phenyl)-2-oxooxazolidin-5-ylmethyl]acetamide]: the ED50 with Staphylococcus aureus [1] (setting [3]) and with Staphylococcus aureus [1] (setting [4]) was above 90 mg/kg throughout. Further, the MIC with Escherichia coli is above 128 µg/mL; in the assay with Staphylococcus aureus [2], 8 µg/mL (≈ 18.3 µM).

In the case of `CC(=O)NCC1CN(c2ccc(-c3ccc([N+](C)(C)[O-])cc3)cc2)C(=O)O1` (stereo not shown) [Example 116], the ED50 with Staphylococcus aureus [1] (setting [4]) came out at 6.4 mg/kg. The MIC with Escherichia coli was above 128 µg/mL; in the assay on Staphylococcus aureus [2], 16 µg/mL (≈ 43.3 µM).

Regarding `CC(=O)NC[C@H]1CN(c2ccc(-c3ccc(C(O)C(C)CN4CCN(C)CC4)cc3)cc2)C(=O)O1` (stereo partly shown) [Example 64], the median effective dose (ED50) in the assay on Staphylococcus aureus [1] (setting [3]) worked out at 50 mg/kg; in the assay on Staphylococcus aureus [1] (setting [4]), 11 mg/kg. Further, the MIC was above 128 µg/mL in the assay on Escherichia coli and 4 µg/mL (≈ 8.32 µM) in the assay with Staphylococcus aureus [2].

Turning to `CC(=O)NC[C@H]1CN(c2ccc(-c3ccnc(N)n3)cc2)C(=O)O1` [Example 135], the ED50 in the assay on Staphylococcus aureus [1] (setting [3]) was found to be 68 mg/kg. The figures for the MIC with Escherichia coli and with Staphylococcus aureus [2] were above 128 µg/mL and 4 µg/mL (≈ 12.2 µM), respectively.

On to `CC(=O)NC[C@H]1CN(c2ccc(-c3ccc(C(C)O)cc3)cc2)C(=O)O1` (single isomer, unassigned) [Example 27, (l)-N-[3-(4-(4'-(1-Hydroxyethyl)phenyl)phenyl)-2-oxooxazolidin-5-ylmethyl]acetamide], for which the ED50 with Staphylococcus aureus [1] (setting [3]) is 6.6 mg/kg; with Staphylococcus aureus [1] (setting [4]), 7.6 mg/kg. The values for the MIC in the assay with Escherichia coli and with Staphylococcus aureus [2] were above 128 µg/mL and 0.5 µg/mL (≈ 1.41 µM), respectively.

`C=C(C)C(=O)c1ccc(-c2ccc(N3C[C@H](CNC(C)=O)OC3=O)cc2)cc1` [Example 63]: the ED50 in the assay on Staphylococcus aureus [1] (setting [3]) and with Staphylococcus aureus [1] (setting [4]) was above 90 mg/kg throughout. Moreover, the results for the MIC in the assay on Escherichia coli and with Staphylococcus aureus [2] were above 128 µg/mL and 0.25 µg/mL (≈ 0.661 µM), respectively.

As for `CC(=O)NC[C@H]1CN(c2ccc(-c3ccc(C(O)CCN4CCOCC4)cc3)cc2)C(=O)O1` (single isomer, unassigned) [Example 59, (l)-N-[3-(4-(4'-(1-hydroxy-3-(4-morpholinyl)propyl)phenyl)phenyl)-2-oxooxazolidin-5-ylmethyl]acetamide], the results for the ED50 in the assay on Staphylococcus aureus [1] (setting [3]) and in the assay on Staphylococcus aureus [1] (setting [4]) were 7 mg/kg and 2.7 mg/kg, respectively. Further, the MIC in the assay with Escherichia coli was above 128 µg/mL; in the assay with Staphylococcus aureus [2], 2 µg/mL (≈ 4.41 µM).

Consider `CC(=O)NC[C@H]1CN(c2ccc(-c3ccc(C#N)cc3)cc2)C(=O)O1` [Example 37, (l)-N-[3-(4-(4'-Cyanophenyl)phenyl)-2-oxooxazolidin-5-ylmethyl]acetamide], for which the 50% effective dose (ED50) is below 1.2 mg/kg with Staphylococcus aureus [1] (setting [3]) and 0.6 mg/kg in the assay on Staphylococcus aureus [1] (setting [4]). The values for the MIC with Escherichia coli and in the assay with Staphylococcus aureus [2] were above 128 µg/mL and 0.25 µg/mL (≈ 0.745 µM), respectively.

Regarding `CC(=O)NC[C@H]1CN(c2ccc(-c3ccc(C(C)=NOCC(=O)O)cc3)cc2)C(=O)O1` [Example 24, (l)-N-[3-(4-(4'-(1-Carboxymethoxyliminoethyl)phenyl)phenyl)-2-oxooxazolidin-5-ylmethyl]acetamide], the ED50 with Staphylococcus aureus [1] (setting [3]) and with Staphylococcus aureus [1] (setting [4]) was above 90 mg/kg throughout. Moreover, the MIC is above 128 µg/mL in the assay on Escherichia coli and 8 µg/mL (≈ 18.8 µM) in the assay on Staphylococcus aureus [2].

Take `CC(=O)NC[C@H]1CN(c2ccc(-c3cnco3)cc2)C(=O)O1` [Example 136]: the ED50 in the assay with Staphylococcus aureus [1] (setting [3]) worked out at 14.8 mg/kg; with Staphylococcus aureus [1] (setting [4]), 51.9 mg/kg. The MIC was above 128 µg/mL in the assay with Escherichia coli and 1 µg/mL (≈ 3.32 µM) in the assay with Staphylococcus aureus [2].
